The record followed here is ChEMBL document CHEMBL5724914, “Linking interpersonal differences in gut microbiota composition and drug biotransformation activity” (2024).

Data set [1] in a line: The drug is tested on Z-026 corresponding to metagenome with ENA study accession number: PRJEB37062 and ENA sample accession number: ERS12561825 for biotransformation under anaerobic condition. The drug concentrations were measured over 9 timepoints collected between 0 and 24 hours of incubation by liquid-chromatography-coupled mass spectrometry (LC–MS). The settings on record: 2 µM.

Data set [2] is described as follows: The drug is tested on Z-009 corresponding to pig gut metagenome with ENA study accession number: PRJEB37062 and ENA sample accession number: ERS12561809 for biotransformation under anaerobic condition. The drug concentrations were measured over 9 timepoints collected between 0 and 24 hours of incubation by liquid-chromatography-coupled mass spectrometry (LC–MS). The settings on record: 2 µM.

Data set [3] in a line: The drug is tested on WLS-220 corresponding to human gut metagenome with ENA study accession number: PRJEB37062 and ENA sample accession number: ERS12561769 for biotransformation under anaerobic condition. The drug concentrations were measured over 9 timepoints collected between 0 and 24 hours of incubation by liquid-chromatography-coupled mass spectrometry (LC–MS). The settings on record: 2 µM.

Data set [4] is described as follows: The drug is tested on Z-023 corresponding to metagenome with ENA study accession number: PRJEB37062 and ENA sample accession number: ERS12561822 for biotransformation under anaerobic condition. The drug concentrations were measured over 9 timepoints collected between 0 and 24 hours of incubation by liquid-chromatography-coupled mass spectrometry (LC–MS). The settings on record: 2 µM.

Data set [5] is described as follows: The drug is tested on WLS-086 corresponding to human gut metagenome with ENA study accession number: PRJEB37062 and ENA sample accession number: ERS12561752 for biotransformation under anaerobic condition. The drug concentrations were measured over 9 timepoints collected between 0 and 24 hours of incubation by liquid-chromatography-coupled mass spectrometry (LC–MS). Conditions: 2 µM.

Data set [6] is described as follows: The drug is tested on Z-028 corresponding to mouse gut metagenome with ENA study accession number: PRJEB37062 and ENA sample accession number: ERS12561827 for biotransformation under anaerobic condition. The drug concentrations were measured over 9 timepoints collected between 0 and 24 hours of incubation by liquid-chromatography-coupled mass spectrometry (LC–MS). Conditions: 2 µM.

For data set [7] the following is noted: human gut metagenome, 24 h, 2 µM.
A short description of data set [8]: The drug is tested on WLS-090 corresponding to human gut metagenome with ENA study accession number: PRJEB37062 and ENA sample accession number: ERS12561753 for biotransformation under anaerobic condition. The drug concentrations were measured over 9 timepoints collected between 0 and 24 hours of incubation by liquid-chromatography-coupled mass spectrometry (LC–MS). Conditions: 2 µM.

For data set [9] the following is noted: human gut metagenome, 24 h, 2 µM. The source holds these as a separate data set.
The conditions of data set [10]: human gut metagenome, 24 h, 2 µM. The source holds these as a separate data set.
The nature of data set [11]: The drug is tested on Z-024 corresponding to pig gut metagenome with ENA study accession number: PRJEB37062 and ENA sample accession number: ERS12561823 for biotransformation under anaerobic condition. The drug concentrations were measured over 9 timepoints collected between 0 and 24 hours of incubation by liquid-chromatography-coupled mass spectrometry (LC–MS). The settings on record: 2 µM.

Data set [12] is described as follows: The drug is tested on WLS-038 corresponding to human gut metagenome with ENA study accession number: PRJEB37062 and ENA sample accession number: ERS12561745 for biotransformation under anaerobic condition. The drug concentrations were measured over 9 timepoints collected between 0 and 24 hours of incubation by liquid-chromatography-coupled mass spectrometry (LC–MS). The settings on record: 2 µM.

Data set [13] in a line: The drug is tested on WLS-310 corresponding to human gut metagenome with ENA study accession number: PRJEB37062 and ENA sample accession number: ERS12561785 for biotransformation under anaerobic condition. The drug concentrations were measured over 9 timepoints collected between 0 and 24 hours of incubation by liquid-chromatography-coupled mass spectrometry (LC–MS). The settings on record: 2 µM.

The conditions of data set [14]: human gut metagenome, 24 h, 2 µM. This is another data set of the same source.
The conditions of data set [15]: human gut metagenome, 24 h, 2 µM. The source holds these as a separate data set.
Data set [16] is described as follows: The drug is tested on Z-021 corresponding to metagenome with ENA study accession number: PRJEB37062 and ENA sample accession number: ERS12561820 for biotransformation under anaerobic condition. The drug concentrations were measured over 9 timepoints collected between 0 and 24 hours of incubation by liquid-chromatography-coupled mass spectrometry (LC–MS). The settings on record: 2 µM.

For data set [17] the following is noted: human gut metagenome, 24 h, 2 µM. The source holds these as a separate data set.
Data set [18] is described as follows: The drug is tested on Z-018 corresponding to pig gut metagenome with ENA study accession number: PRJEB37062 and ENA sample accession number: ERS12561817 for biotransformation under anaerobic condition. The drug concentrations were measured over 9 timepoints collected between 0 and 24 hours of incubation by liquid-chromatography-coupled mass spectrometry (LC–MS). The settings on record: 2 µM.

For data set [19] the following is noted: human gut metagenome, 24 h, 2 µM. This is another data set of the same source.
Data set [20] in a line: The drug is tested on Z-010 corresponding to metagenome with ENA study accession number: PRJEB37062 and ENA sample accession number: ERS12561810 for biotransformation under anaerobic condition. The drug concentrations were measured over 9 timepoints collected between 0 and 24 hours of incubation by liquid-chromatography-coupled mass spectrometry (LC–MS). The settings on record: 2 µM.
Further: call rule not given here.

Turning to `CC1Cc2ccccc2N1NC(=O)c1ccc(Cl)c(S(N)(=O)=O)c1` (stereo not given) [INDAPAMIDE], the “Bacterial Biotransformation” value in data set [1], in data set [2], in data set [3], in [4], in data set [5] and in data set [6] was “Compound NOT metabolized” throughout. In addition, the “Bacterial Biotransformation” value in [7], in data set [8], in data set [9], in data set [10], in data set [11] and in [12] was “Compound NOT metabolized” in each case. The “Bacterial Biotransformation” value in data set [13], in data set [14], in data set [15], in data set [16], in [17] and in data set [18] was “Compound NOT metabolized” throughout. Also, the “Bacterial Biotransformation” value in data set [19] and in data set [20] was “Compound NOT metabolized” each time.

With `CN1CCN2c3ccccc3Cc3ccccc3C2C1` (stereo not given) [MIANSERIN], the “Bacterial Biotransformation” value in data set [1] was “Compound NOT metabolized”; in [2], “Compound metabolized”; in data set [3], “Compound metabolized”; in data set [4] it was “Compound NOT metabolized”; in [5] it was “Compound metabolized”; in data set [6] it was “Compound NOT metabolized”. Also, the “Bacterial Biotransformation” value in data set [7] is given as “Compound NOT metabolized”; in [8] it was “Compound metabolized”; in [9], “Compound metabolized”; in data set [10], “Compound metabolized”; in [11] it was “Compound metabolized”; in data set [12], “Compound NOT metabolized”. Also, the “Bacterial Biotransformation” value is “Compound NOT metabolized” in data set [13]; “Compound NOT metabolized” in data set [14]; “Compound metabolized” in [15]; “Compound metabolized” in [16]; “Compound NOT metabolized” in [17]; “Compound metabolized” in data set [18]. The “Bacterial Biotransformation” value in [19] and in data set [20] was “Compound metabolized” throughout.

`CN1CCC[C@@H]1CCO[C@](C)(c1ccccc1)c1ccc(Cl)cc1.O=C(O)/C=C/C(=O)O` [CLEMASTINE FUMARATE]: the “Bacterial Biotransformation” value in data set [1] is on record as “Compound NOT metabolized”; in [2] it was “Compound NOT metabolized”; in [3] it was “Compound NOT metabolized”; in data set [4], “Compound NOT metabolized”; in data set [5] it was “Compound metabolized”; in [6], “Compound NOT metabolized”. Moreover, the “Bacterial Biotransformation” value is listed as “Compound NOT metabolized” in data set [7]; “Compound NOT metabolized” in data set [8]; “Compound NOT metabolized” in [9]; “Compound metabolized” in data set [10]; “Compound NOT metabolized” in data set [11]; “Compound metabolized” in data set [12]. The “Bacterial Biotransformation” value in [13] was “Compound metabolized”; in [14], “Compound metabolized”; in data set [15], “Compound metabolized”; in data set [16] it was “Compound NOT metabolized”; in [17], “Compound metabolized”; in data set [18], “Compound NOT metabolized”. Moreover, the “Bacterial Biotransformation” value is listed as “Compound metabolized” in data set [19] and “Compound NOT metabolized” in [20].

In the case of `CC12CC3CC(C)(C1)CC(N)(C3)C2` [MEMANTINE], the “Bacterial Biotransformation” value in [1] was “Compound NOT metabolized”; in data set [2] it was “Compound NOT metabolized”; in data set [3], “Compound NOT metabolized”; in data set [4], “Compound metabolized”; in data set [5], “Compound NOT metabolized”; in [6], “Compound NOT metabolized”. The “Bacterial Biotransformation” value in [7] is “Compound NOT metabolized”; in data set [8], “Compound metabolized”; in [9], “Compound NOT metabolized”; in [10], “Compound NOT metabolized”; in [11], “Compound NOT metabolized”; in data set [12], “Compound NOT metabolized”. The “Bacterial Biotransformation” value in [13], in [14], in [15], in data set [16], in data set [17] and in data set [18] was “Compound NOT metabolized” throughout. Also, the “Bacterial Biotransformation” value in [19] and in [20] was “Compound NOT metabolized” throughout.

In the case of `COc1cc2nc(N3CCN(C(=O)C4CCCO4)CC3)nc(N)c2cc1OC` (stereo not given) [TERAZOSIN], the “Bacterial Biotransformation” value is recorded as “Compound NOT metabolized” in [1]; “Compound metabolized” in [2]; “Compound metabolized” in data set [3]; “Compound NOT metabolized” in data set [4]; “Compound metabolized” in data set [5]; “Compound NOT metabolized” in data set [6]. Besides, the “Bacterial Biotransformation” value is listed as “Compound NOT metabolized” in [7]; “Compound metabolized” in data set [8]; “Compound NOT metabolized” in [9]; “Compound metabolized” in data set [10]; “Compound NOT metabolized” in data set [11]; “Compound NOT metabolized” in data set [12]. Moreover, the “Bacterial Biotransformation” value in [13] is “Compound metabolized”; in [14], “Compound NOT metabolized”; in data set [15], “Compound NOT metabolized”; in data set [16] it was “Compound NOT metabolized”; in data set [17], “Compound metabolized”; in data set [18], “Compound metabolized”. The “Bacterial Biotransformation” value in [19] and in data set [20] was “Compound metabolized” in each case.
